According to US11713338B2, “Cyclic peptides multimers targeting α-4-β-7 integrin” (priority 2016, dated 2023):

Molecular target: T1, recombinant integrin α4β1 (Homo sapiens, UniProt P05556+P13612)
T1 construct: purchased R&D Systems 5397-A3-050
Assay: Integrin α4β1—VCAM-1 competition ELISA
Format: binding
Details: for ELISA Assay Ratio β1/β7: ratio of ELISA IC50s, α4β1 over α4β7; for IC50: read-out: ELISA α4β1 Assay IC50
Method in brief: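 Detection of bound ligand used HRP-conjugated anti-human IgG Fc, 1 h with agitation at room temperature. This followed a 2 h room-temperature, 300 rpm equilibration of compound in the coated wells. Washes were done in 50 mM Tris, 100 mM NaCl, 1 mM MnCl2, 0.05% Tween.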

T1 sequence (P13612 34-970 limits assumed): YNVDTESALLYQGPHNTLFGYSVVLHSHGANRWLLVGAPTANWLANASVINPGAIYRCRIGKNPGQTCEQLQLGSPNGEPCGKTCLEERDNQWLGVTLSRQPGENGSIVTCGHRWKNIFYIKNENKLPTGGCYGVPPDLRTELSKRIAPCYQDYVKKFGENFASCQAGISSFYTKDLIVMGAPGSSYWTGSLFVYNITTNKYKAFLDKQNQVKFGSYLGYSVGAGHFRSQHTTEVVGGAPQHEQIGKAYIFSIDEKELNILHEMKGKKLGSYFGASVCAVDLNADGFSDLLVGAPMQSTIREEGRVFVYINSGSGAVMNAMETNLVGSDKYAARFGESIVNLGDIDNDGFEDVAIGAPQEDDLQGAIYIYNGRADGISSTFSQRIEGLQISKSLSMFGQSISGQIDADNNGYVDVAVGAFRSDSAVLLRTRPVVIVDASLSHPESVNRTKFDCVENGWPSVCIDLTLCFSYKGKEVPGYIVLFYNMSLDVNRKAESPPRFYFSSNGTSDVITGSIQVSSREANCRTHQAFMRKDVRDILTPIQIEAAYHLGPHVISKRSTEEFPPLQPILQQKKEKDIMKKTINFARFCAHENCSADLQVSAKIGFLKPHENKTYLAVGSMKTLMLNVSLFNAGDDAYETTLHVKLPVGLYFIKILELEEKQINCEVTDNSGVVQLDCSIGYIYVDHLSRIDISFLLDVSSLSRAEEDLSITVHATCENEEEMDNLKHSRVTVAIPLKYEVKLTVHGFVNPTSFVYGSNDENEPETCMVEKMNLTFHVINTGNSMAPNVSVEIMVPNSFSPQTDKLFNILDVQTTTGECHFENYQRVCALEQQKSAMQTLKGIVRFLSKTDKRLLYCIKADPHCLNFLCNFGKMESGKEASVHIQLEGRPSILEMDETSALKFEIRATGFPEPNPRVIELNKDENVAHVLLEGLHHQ
T1 sequence (P05556 21-728 limits assumed): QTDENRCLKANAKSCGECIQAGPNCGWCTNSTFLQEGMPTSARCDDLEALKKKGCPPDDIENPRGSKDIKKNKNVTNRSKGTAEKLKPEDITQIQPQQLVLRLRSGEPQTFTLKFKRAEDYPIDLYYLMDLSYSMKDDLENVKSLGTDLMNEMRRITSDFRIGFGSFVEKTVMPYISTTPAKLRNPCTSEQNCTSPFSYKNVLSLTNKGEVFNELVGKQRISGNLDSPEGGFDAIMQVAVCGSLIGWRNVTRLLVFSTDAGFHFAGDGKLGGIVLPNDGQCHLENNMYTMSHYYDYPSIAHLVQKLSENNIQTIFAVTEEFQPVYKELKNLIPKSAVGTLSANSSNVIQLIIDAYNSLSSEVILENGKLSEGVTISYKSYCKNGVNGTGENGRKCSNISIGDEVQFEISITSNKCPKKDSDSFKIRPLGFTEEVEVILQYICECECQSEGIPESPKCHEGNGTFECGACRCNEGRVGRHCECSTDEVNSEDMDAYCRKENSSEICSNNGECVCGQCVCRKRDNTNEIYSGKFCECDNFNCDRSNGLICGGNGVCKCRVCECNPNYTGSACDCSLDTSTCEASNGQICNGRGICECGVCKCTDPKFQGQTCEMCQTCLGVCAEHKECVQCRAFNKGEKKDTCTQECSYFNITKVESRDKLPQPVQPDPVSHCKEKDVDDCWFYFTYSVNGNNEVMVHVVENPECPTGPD

| SMILES | ELISA Assay Ratio β1/β7 | IC50 [nM] | ELISA Assay Ratio b1/b7 (ratio of ELISA IC50 b1 to b7) |
| --- | --- | --- | --- |
| CC(C)C[C@@H]1NC(=O)c2ccc(-c3ccc(N4CCN(C(=O)COCC(=O)N5CCN(c6ccc(-c7ccc8cc7CNC(=O)[C@@H]7CCCN7[C@H](C(=O)NC(C)(C)C)[C@H](C)NC(=O)[C@H]([C@@H](C)O)NC(=O)[C@H](CC(=O)O)NC(=O)[C@H](CC(C)C)NC8=O)cc6)CC5)CC4)cc3)c(c2)CNC(=O)[C@@H]2CCCN2[C@H](C(=O)NC(C)(C)C)[C@H](C)NC(=O)[C@H]([C@@H](C)O)NC(=O)[C@H](CC(=O)O)NC1=O [Compound 390] | 0.2 | 2 | – |
| CC(C)C[C@@H]1NC(=O)c2ccc(-c3ccc(N4CCN(C(=O)CCCCCCCCCCC(=O)N5CCN(c6ccc(-c7ccc8cc7CNC(=O)[C@@H]7CCCN7[C@H](C(=O)NC(C)(C)C)[C@H](C)NC(=O)[C@H]([C@@H](C)O)NC(=O)[C@H](CC(=O)O)NC(=O)[C@H](CC(C)C)NC8=O)cc6)CC5)CC4)cc3)c(c2)CNC(=O)[C@@H]2CCCN2[C@H](C(=O)NC(C)(C)C)[C@H](C)NC(=O)[C@H]([C@@H](C)O)NC(=O)[C@H](CC(=O)O)NC1=O [Compound 392] | 0.3 | 6.3 | – |
| CC(C)C[C@@H]1NC(=O)C[C@H](CCCCN)N(C)C(=O)[C@H](CCCCN)NC(=O)[C@@H]2CCCN2[C@H](C(=O)NC(C)(C)C)[C@H](C)NC(=O)[C@H]([C@@H](C)O)NC(=O)[C@H](CC(=O)O)NC1=O [Compound 456] | – | – | 1.5 |
| CC(C)C[C@@H]1NC(=O)c2ccc(-c3ccc(N4CCN(C(=O)[C@H]5CCC[C@H]5C(=O)N5CCN(c6ccc(-c7ccc8cc7CNC(=O)[C@@H]7CCCN7[C@H](C(=O)NC(C)(C)C)[C@H](C)NC(=O)[C@H]([C@@H](C)O)NC(=O)[C@H](CC(=O)O)NC(=O)[C@H](CC(C)C)NC8=O)cc6)CC5)CC4)cc3)c(c2)CNC(=O)[C@@H]2CCCN2[C@H](C(=O)NC(C)(C)C)[C@H](C)NC(=O)[C@H]([C@@H](C)O)NC(=O)[C@H](CC(=O)O)NC1=O [Compound 458] | 0.2 | 1.5 | – |
| CC(C)C[C@@H]1NC(=O)c2ccc(-c3ccc(N4CCN(C(=O)C56CC7CC(C5)CC(C(=O)N5CCN(c8ccc(-c9ccc%10cc9CNC(=O)[C@@H]9CCCN9[C@H](C(=O)NC(C)(C)C)[C@H](C)NC(=O)[C@H]([C@@H](C)O)NC(=O)[C@H](CC(=O)O)NC(=O)[C@H](CC(C)C)NC%10=O)cc8)CC5)(C7)C6)CC4)cc3)c(c2)CNC(=O)[C@@H]2CCCN2[C@H](C(=O)NC(C)(C)C)[C@H](C)NC(=O)[C@H]([C@@H](C)O)NC(=O)[C@H](CC(=O)O)NC1=O [Compound 460] | 0.1 | 1 | – |
| CC(C)C[C@@H]1NC(=O)c2ccc(-c3ccc(N4CCN(C(=O)C5(C(=O)N6CCN(c7ccc(-c8ccc9cc8CNC(=O)[C@@H]8CCCN8[C@H](C(=O)NC(C)(C)C)[C@H](C)NC(=O)[C@H]([C@@H](C)O)NC(=O)[C@H](CC(=O)O)NC(=O)[C@H](CC(C)C)NC9=O)cc7)CC6)Cc6ccccc6C5)CC4)cc3)c(c2)CNC(=O)[C@@H]2CCCN2[C@H](C(=O)NC(C)(C)C)[C@H](C)NC(=O)[C@H]([C@@H](C)O)NC(=O)[C@H](CC(=O)O)NC1=O [Compound 461] | 0.4 | 7.9 | – |
| COc1cc(C(=O)N2CCN(c3ccc(-c4ccc5cc4CNC(=O)[C@@H]4CCCN4[C@H](C(=O)NC(C)(C)C)[C@H](C)NC(=O)[C@H]([C@@H](C)O)NC(=O)[C@H](CC(=O)O)NC(=O)[C@H](CC(C)C)NC5=O)cc3)CC2)cc(-c2ccc(C(=O)N3CCN(c4ccc(-c5ccc6cc5CNC(=O)[C@@H]5CCCN5[C@H](C(=O)NC(C)(C)C)[C@H](C)NC(=O)[C@H]([C@@H](C)O)NC(=O)[C@H](CC(=O)O)NC(=O)[C@H](CC(C)C)NC6=O)cc4)CC3)cc2F)c1 [Compound 464] | – | 22 | – |
| CC(C)C[C@@H]1NC(=O)c2ccc(-c3ccc(N4CCN(C(=O)c5ccc(-c6cccc(C(=O)N7CCN(c8ccc(-c9ccc%10cc9CNC(=O)[C@@H]9CCCN9[C@H](C(=O)NC(C)(C)C)[C@H](C)NC(=O)[C@H]([C@@H](C)O)NC(=O)[C@H](CC(=O)O)NC(=O)[C@H](CC(C)C)NC%10=O)cc8)CC7)n6)nc5)CC4)cc3)c(c2)CNC(=O)[C@@H]2CCCN2[C@H](C(=O)NC(C)(C)C)[C@H](C)NC(=O)[C@H]([C@@H](C)O)NC(=O)[C@H](CC(=O)O)NC1=O [Compound 466] | 0.3 | 4.2 | – |
| CC(C)C[C@@H]1NC(=O)c2ccc(-c3ccc(N4CCN(C(=O)c5nccnc5C(=O)N5CCN(c6ccc(-c7ccc8cc7CNC(=O)[C@@H]7CCCN7[C@H](C(=O)NC(C)(C)C)[C@H](C)NC(=O)[C@H]([C@@H](C)O)NC(=O)[C@H](CC(=O)O)NC(=O)[C@H](CC(C)C)NC8=O)cc6)CC5)CC4)cc3)c(c2)CNC(=O)[C@@H]2CCCN2[C@H](C(=O)NC(C)(C)C)[C@H](C)NC(=O)[C@H]([C@@H](C)O)NC(=O)[C@H](CC(=O)O)NC1=O [Compound 467] | 0.1 | 1 | – |
| CC(C)C[C@@H]1NC(=O)c2ccc(-c3ccc(N4CCN(c5ncc([N+](=O)[O-])c(N6CCN(c7ccc(-c8ccc9cc8CNC(=O)[C@@H]8CCCN8[C@H](C(=O)NC(C)(C)C)[C@H](C)NC(=O)[C@H]([C@@H](C)O)NC(=O)[C@H](CC(=O)O)NC(=O)[C@H](CC(C)C)NC9=O)cc7)CC6)n5)CC4)cc3)c(c2)CNC(=O)[C@@H]2CCCN2[C@H](C(=O)NC(C)(C)C)[C@H](C)NC(=O)[C@H]([C@@H](C)O)NC(=O)[C@H](CC(=O)O)NC1=O [Compound 468] | 0.3 | 10 | – |
| CC(C)C[C@@H]1NC(=O)c2ccc(-c3ccc(N4CCN(C(=O)c5cc(-c6ccccc6)c(C(=O)N6CCN(c7ccc(-c8ccc9cc8CNC(=O)[C@@H]8CCCN8[C@H](C(=O)NC(C)(C)C)[C@H](C)NC(=O)[C@H]([C@@H](C)O)NC(=O)[C@H](CC(=O)O)NC(=O)[C@H](CC(C)C)NC9=O)cc7)CC6)cc5-c5ccccc5)CC4)cc3)c(c2)CNC(=O)[C@@H]2CCCN2[C@H](C(=O)NC(C)(C)C)[C@H](C)NC(=O)[C@H]([C@@H](C)O)NC(=O)[C@H](CC(=O)O)NC1=O [Compound 469] | 0.3 | 10 | – |
| CC(C)C[C@@H]1NC(=O)c2ccc(-c3ccc(N4CCN(C(=O)c5ccc(C(=O)N6CCN(c7ccc(-c8ccc9cc8CNC(=O)[C@@H]8CCCN8[C@H](C(=O)NC(C)(C)C)[C@H](C)NC(=O)[C@H]([C@@H](C)O)NC(=O)[C@H](CC(=O)O)NC(=O)[C@H](CC(C)C)NC9=O)cc7)CC6)s5)CC4)cc3)c(c2)CNC(=O)[C@@H]2CCCN2[C@H](C(=O)NC(C)(C)C)[C@H](C)NC(=O)[C@H]([C@@H](C)O)NC(=O)[C@H](CC(=O)O)NC1=O [Compound 470] | 0.2 | 1 | – |
| CC(C)C[C@@H]1NC(=O)c2ccc(-c3ccc(N4CCN(C(=O)c5ccc(-c6ccc(C(=O)N7CCN(c8ccc(-c9ccc%10cc9CNC(=O)[C@@H]9CCCN9[C@H](C(=O)NC(C)(C)C)[C@H](C)NC(=O)[C@H]([C@@H](C)O)NC(=O)[C@H](CC(=O)O)NC(=O)[C@H](CC(C)C)NC%10=O)cc8)CC7)cc6)cc5)CC4)cc3)c(c2)CNC(=O)[C@@H]2CCCN2[C@H](C(=O)NC(C)(C)C)[C@H](C)NC(=O)[C@H]([C@@H](C)O)NC(=O)[C@H](CC(=O)O)NC1=O [Compound 474] | 0.4 | 7.1 | – |
